Laboratory results published in BindingDB's records for doi:10.1021/jm031016d (University of Athens, 2004).

How the values were obtained:
[1] = molecular target: Glycogen synthase kinase-3 alpha/beta (Sus scrofa); test: Kinase activities were assayed in buffers containing substrate, enzyme, and inhibitor at 30 °C in the presence of 15 uM ATP/ [gamma-32P] ATP. 32P incorporation was measured with a scintillation counter. The IC50 is the inhibitor concentration, which inhibits 50% of kinase activity that catalyzes the transfer of the terminal phosphate from 32P l
[2] = molecular target: Cyclin-dependent kinase 1/G2/mitotic-specific cyclin-B (Marthasterias glacialis, UniProt P15206+Q9DGD3); test: Kinase Inhibition Assay; conditions: 30 °C
Sequence of Cyclin-dependent kinase 1/G2/mitotic-specific cyclin-B (Q9DGD3 whole entry): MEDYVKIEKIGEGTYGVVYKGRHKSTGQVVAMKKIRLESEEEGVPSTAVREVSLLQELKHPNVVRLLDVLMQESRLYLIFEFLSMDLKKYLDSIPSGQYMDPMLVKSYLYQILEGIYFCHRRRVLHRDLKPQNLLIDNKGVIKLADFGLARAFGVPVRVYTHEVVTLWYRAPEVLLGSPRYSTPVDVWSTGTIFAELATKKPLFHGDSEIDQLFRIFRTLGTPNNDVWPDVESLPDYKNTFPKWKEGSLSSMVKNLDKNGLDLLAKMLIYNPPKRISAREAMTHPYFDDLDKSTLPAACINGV
Sequence of Cyclin-dependent kinase 1/G2/mitotic-specific cyclin-B (P15206 whole entry): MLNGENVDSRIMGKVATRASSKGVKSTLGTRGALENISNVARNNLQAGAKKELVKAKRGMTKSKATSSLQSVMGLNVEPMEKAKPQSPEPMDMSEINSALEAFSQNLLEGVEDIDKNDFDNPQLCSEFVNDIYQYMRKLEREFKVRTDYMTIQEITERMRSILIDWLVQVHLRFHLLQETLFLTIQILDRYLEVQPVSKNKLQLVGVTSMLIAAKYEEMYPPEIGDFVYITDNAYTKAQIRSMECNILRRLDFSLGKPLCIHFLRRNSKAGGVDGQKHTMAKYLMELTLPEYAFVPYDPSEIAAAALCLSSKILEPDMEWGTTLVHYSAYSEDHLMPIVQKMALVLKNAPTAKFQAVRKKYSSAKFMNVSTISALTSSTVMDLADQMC

[3] = molecular target: T1, Cyclin-dependent kinase 5 activator 1 [99-307] (Homo sapiens, UniProt Q00535); test: Kinase Inhibition Assay; conditions: 30 °C
T1 construct: 99-307
T1 sequence (Q15078 99-307): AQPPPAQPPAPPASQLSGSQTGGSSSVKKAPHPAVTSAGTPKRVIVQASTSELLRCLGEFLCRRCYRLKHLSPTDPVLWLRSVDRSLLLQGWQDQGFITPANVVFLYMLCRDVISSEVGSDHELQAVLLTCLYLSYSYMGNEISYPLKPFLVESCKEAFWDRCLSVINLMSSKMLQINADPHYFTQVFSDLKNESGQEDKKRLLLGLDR
T1 sequence (Q00535 whole entry): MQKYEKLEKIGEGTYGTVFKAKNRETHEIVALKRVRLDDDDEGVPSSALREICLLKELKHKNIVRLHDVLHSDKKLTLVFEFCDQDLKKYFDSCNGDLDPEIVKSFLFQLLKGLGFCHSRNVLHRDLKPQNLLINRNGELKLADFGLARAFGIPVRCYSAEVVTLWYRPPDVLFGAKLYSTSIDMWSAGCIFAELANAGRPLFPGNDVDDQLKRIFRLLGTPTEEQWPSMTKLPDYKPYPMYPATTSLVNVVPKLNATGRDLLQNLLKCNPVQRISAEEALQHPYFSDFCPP

Question: Which IC50 [1] does the source give for `CN1C(=O)/C(=C2\Nc3ccccc3C2=O)c2ccccc21` [1-methyl-3-[(2Z)-3-oxo-2,3-dihydro-1H-indol-2-ylidene]-2,3-dihydro-1H-indol-2-one] here?
Answer: The IC50 was > 100 µM.

Question: What about the IC50 [2] of the same compound?
Answer: Its IC50 is > 100 µM.

Question: What about the IC50 [3] of the same compound?
Answer: Its IC50 is > 100 µM.

Question: What does the source list for `CN1C(=O)C(c2[nH]c3ccccc3c2N=O)c2ccccc21` (stereo not drawn) [3-[(2Z,3E)-3-(hydroxyimino)-2,3-dihydro-1H-indol-2-ylidene]-1-methyl-2,3-dihydro-1H-indol-2-one]?
Answer: IC50 [1]: > 100 µM; IC50 [2]: 73 µM; IC50 [3]: > 100 µM

Question: Which IC50 [3] does the source give for `CO/N=C1/C(=C2/C(=O)Nc3ccccc32)Nc2ccccc21` [3-[(2Z,3E)-3-(methoxyimino)-2,3-dihydro-1H-indol-2-ylidene]-2,3-dihydro-1H-indol-2-one] here?
Answer: Its IC50 is 0.4 µM.

Question: Which results are given for `O=C1Nc2cccc(Cl)c2/C1=C1/Nc2ccccc2C1=O` [4-chloro-3-[(2Z)-3-oxo-2,3-dihydro-1H-indol-2-ylidene]-2,3-dihydro-1H-indol-2-one]?
Answer: IC50 [1]: > 100 µM; IC50 [2]: 10 µM; IC50 [3]: 10 µM

Question: How did the IC50 [1] turn out when `O=C1Nc2cc(Br)c([N+](=O)[O-])cc2[C+]1c1[nH]c2ccccc2c1[O-]` [6-Bromo-5-nitroindirubin] was run?
Answer: Its IC50 is 0.1 µM.

Question: And the IC50 [2]?
Answer: Its IC50 is > 100 µM.

Question: And the IC50 [3]?
Answer: Its IC50 is > 100 µM.

Question: How did the IC50 [3] turn out when `O=C1Nc2cc(Br)ccc2/C1=C1/Nc2ccccc2C1=O` [6-bromo-3-[(2Z)-3-oxo-2,3-dihydro-1H-indol-2-ylidene]-2,3-dihydro-1H-indol-2-one] was run?
Answer: The IC50 was 53 µM.

Question: For `Cc1cc2c(cc1Br)NC(=O)C2c1[nH]c2ccccc2c1N=O` (stereo not drawn) [6-bromo-3-[(2Z,3E)-3-(hydroxyimino)-2,3-dihydro-1H-indol-2-ylidene]-5-methyl-2,3-dihydro-1H-indol-2-one], which IC50 [3] is on record?
Answer: Its IC50 is 0.13 µM.

Question: `O=Nc1c(C2C(=O)Nc3cc(Br)c([N+](=O)[O-])cc32)[nH]c2ccccc12` (stereo not drawn) [6-bromo-3-[(2Z,3E)-3-(hydroxyimino)-2,3-dihydro-1H-indol-2-ylidene]-5-nitro-2,3-dihydro-1H-indol-2-one] was tested. Which IC50 [3] did it give?
Answer: Its IC50 is 0.15 µM.

Question: What does the source list for `O=Nc1c(C2C(=O)Nc3cc(Br)ccc32)[nH]c2cc(Br)ccc12` (stereo not drawn) [6-bromo-3-[(2Z,3E)-6-bromo-3-(hydroxyimino)-2,3-dihydro-1H-indol-2-ylidene]-2,3-dihydro-1H-indol-2-one]?
Answer: IC50 [1]: 0.12 µM; IC50 ([2]; pH 7.2): 17 µM; IC50 [3]: 1.3 µM

Question: Which IC50 [1] does the source give for `Cc1cc2c(cc1Br)NC(=O)/C2=C1\Nc2ccccc2C1=O` [6-bromo-5-methylindirubin] here?
Answer: Its IC50 is 0.025 µM.

Question: What about the IC50 [2] of the same compound?
Answer: The IC50 was 30 µM.

Question: What about the IC50 [3] of the same compound?
Answer: The IC50 was 60 µM.

Question: `O=C1Nc2cc(Cl)ccc2/C1=C1/Nc2ccccc2C1=O` [6-chloro-3-[(2Z)-3-oxo-2,3-dihydro-1H-indol-2-ylidene]-2,3-dihydro-1H-indol-2-one] was tested. Which IC50 [1] did it give?
Answer: The IC50 was 0.14 µM.

Question: And the IC50 ([2]; pH 7.2)?
Answer: Its IC50 is > 100 µM.

Question: And the IC50 [3]?
Answer: Its IC50 is > 100 µM.

Question: `O=Nc1c(C2C(=O)Nc3cc(Cl)ccc32)[nH]c2ccccc12` (stereo not drawn) [6-chloro-3-[(2Z,3E)-3-(hydroxyimino)-2,3-dihydro-1H-indol-2-ylidene]-2,3-dihydro-1H-indol-2-one] was tested. Which IC50 [1] did it give?
Answer: The IC50 was 0.02 µM.

Question: And the IC50 ([2]; pH 7.2)?
Answer: The IC50 was 0.65 µM.

Question: What about the IC50 [3] of the same compound?
Answer: The IC50 was 0.1 µM.

Question: What does the source list for `CC(=O)ON=C1C(=C2C(=O)Nc3cc(Cl)ccc32)Nc2ccccc21` [6-chloroindirubin-3-acetoxime]?
Answer: IC50 [1]: 0.017 µM; IC50 ([2]; pH 7.2): 30 µM; IC50 [3]: 0.2 µM

Question: Which IC50 [1] does the source give for `O=Nc1c(C2C(=O)Nc3cc(F)ccc32)[nH]c2ccccc12` (stereo not drawn) [6-fluoro-3-[(2Z,3E)-3-(hydroxyimino)-2,3-dihydro-1H-indol-2-ylidene]-2,3-dihydro-1H-indol-2-one] here?
Answer: Its IC50 is 0.13 µM.

Question: What about the IC50 [2] of the same compound?
Answer: Its IC50 is 0.32 µM.

Question: And the IC50 [3]?
Answer: The IC50 was 0.15 µM.

Question: For `O=C1Nc2cc(F)ccc2/C1=C1/Nc2ccccc2C1=O` [6-fluoroindirubin], which IC50 [3] is on record?
Answer: Its IC50 is 1 µM.

Question: How did the IC50 [3] turn out when `O=Nc1c(C2C(=O)Nc3cc(I)ccc32)[nH]c2ccccc12` (stereo not drawn) [6-iodoindirubin-3-oxime] was run?
Answer: Its IC50 is 0.3 µM.

Question: For `O=C1Nc2cc(I)ccc2/C1=C1/Nc2ccccc2C1=O` [6-iodoindirubin], which IC50 [1] is on record?
Answer: Its IC50 is 0.055 µM.

Question: What about the IC50 ([2]; pH 7.2) of the same compound?
Answer: Its IC50 is 1.6 µM.

Question: And the IC50 [3]?
Answer: Its IC50 is 5.3 µM.

Question: With `C=Cc1ccc2c(c1)NC(=O)C2c1[nH]c2ccccc2c1N=O` (stereo not drawn) [6-vinylindirubin-3-oxime] as the compound, how does the IC50 [1] read?
Answer: The IC50 was 0.06 µM.

Question: What about the IC50 [2] of the same compound?
Answer: Its IC50 is 1.2 µM.

Question: What about the IC50 [3] of the same compound?
Answer: The IC50 was 0.42 µM.

Question: `C=Cc1ccc2c(c1)NC(=O)/C2=C1\Nc2ccccc2C1=O` [6-vinylindirubin] was tested. Which IC50 [1] did it give?
Answer: The IC50 was 0.24 µM.

Question: What about the IC50 [2] of the same compound?
Answer: The IC50 was 4.2 µM.

Question: And the IC50 [3]?
Answer: The IC50 was 2.4 µM.

Question: With `O=C1Nc2cc(Cl)c(Cl)cc2/C1=C1/Nc2ccccc2C1=O` [(2 Z)-5,6-Dichloroindirubin] as the compound, how does the IC50 [1] read?
Answer: Its IC50 is 0.03 µM.

Question: And the IC50 [2]?
Answer: Its IC50 is 45 µM.

Question: What about the IC50 [3] of the same compound?
Answer: Its IC50 is 60 µM.

Question: `O=C1Nc2cc(Br)ccc2/C1=C1/Nc2cc(Br)ccc2C1=O` [(2 Z)-6,6 -Dibromoindirubin] was tested. Which IC50 [1] did it give?
Answer: Its IC50 is 4.5 µM.

Question: What about the IC50 ([2]; pH 7.2) of the same compound?
Answer: Its IC50 is > 100 µM.

Question: What about the IC50 [3] of the same compound?
Answer: Its IC50 is > 100 µM.

Question: Which results are given for `CN1C(=O)/C(=C2\Nc3ccccc3C2=O)c2ccc(Br)cc21` [(2 Z)-6-Bromo-1-methylindirubin]?
Answer: IC50 [1]: > 100 µM; IC50 ([2]; pH 7.2): > 100 µM; IC50 [3]: > 100 µM

Question: `CN1C(=O)C(c2[nH]c3ccccc3c2N=O)c2ccc(Br)cc21` (stereo not drawn) [(2 Z,3 E)-6-Bromo-1-methylindirubin-3-oxime] was tested. Which IC50 [1] did it give?
Answer: Its IC50 is > 100 µM.

Question: And the IC50 ([2]; pH 7.2)?
Answer: The IC50 was 92 µM.

Question: And the IC50 [3]?
Answer: Its IC50 is > 100 µM.

Question: `CO/N=C1/C(=C2/C(=O)Nc3cc(Br)ccc32)Nc2ccccc21` [(2 Z,3 E)-6-Bromoindirubin-3-methoxime] was tested. Which IC50 [1] did it give?
Answer: The IC50 was 0.03 µM.

Question: What about the IC50 ([2]; pH 7.2) of the same compound?
Answer: Its IC50 is 3.7 µM.

Question: What about the IC50 [3] of the same compound?
Answer: The IC50 was 2.2 µM.

Question: With `CC(=O)ON=C1C(=C2C(=O)Nc3cc(F)ccc32)Nc2ccccc21` [(2 Z,3 E)-6-Fluoroindirubin-3-acetoxime] as the compound, how does the IC50 [3] read?
Answer: The IC50 was 0.3 µM.

Question: Which IC50 [1] does the source give for `CC(=O)ON=C1C(=C2C(=O)Nc3cc(I)ccc32)Nc2ccccc21` [(2 Z,3 E)-6-Iodoindirubin-3-acetoxime] here?
Answer: The IC50 was 0.013 µM.

Question: And the IC50 [2]?
Answer: Its IC50 is 2.2 µM.

Question: And the IC50 [3]?
Answer: The IC50 was 1.3 µM.

Question: `CC(=O)ON=C1C(=C2C(=O)Nc3ccccc32)Nc2ccccc21` [[(3E)-2-[(3Z)-2-oxo-2,3-dihydro-1H-indol-3-ylidene]-2,3-dihydro-1H-indol-3-ylidene]amino acetate] was tested. Which IC50 [3] did it give?
Answer: Its IC50 is 0.7 µM.

Question: With `C=Cc1ccc2c(c1)NC(=O)C2=C1Nc2ccccc2C1=NOC(C)=O` [[(3E)-2-[(3Z)-6-ethenyl-2-oxo-2,3-dihydro-1H-indol-3-ylidene]-2,3-dihydro-1H-indol-3-ylidene]amino acetate] as the compound, how does the IC50 [1] read?
Answer: Its IC50 is 0.065 µM.

Question: What about the IC50 [2] of the same compound?
Answer: The IC50 was 1.6 µM.

Question: What about the IC50 [3] of the same compound?
Answer: The IC50 was 0.4 µM.
